Experimental findings from patent publication US9328099B2, “Cyanomethylpyrazole carboxamides as janus kinase inhibitors” (Merck Sharp & Dohme Corp., priority 2011, dated 2016) are described below.

As usually defined, the IC50 is the concentration that gives 50% inhibition.

One assay has as its target JAK1 (Homo sapiens (Human), UniProt P23458). The assay is described as follows: Jak Biochemical HTRF Assay, JAK1. The note with it: HTRF biochemical assay, GST-tagged catalytic domain; top concentration tested […]; read-out: JAK1 IC50. From the text:
(§1) Jak Biochemical HTRF Assay Protocol
(§2) Subsequent reagent additions employed an Agilent Bravo.
On the technique in general: In TR-FRET formats the signal depends on donor and acceptor labels being close together.

A further assay concerns the target JAK2 (Homo sapiens (Human), UniProt O60674). The experiment in a line: Jak Biochemical HTRF Assay, JAK2. The note with it: HTRF biochemical assay, GST-tagged catalytic domain; top concentration tested […].
Excerpt: as §1, §2

JAK1, sequence (P23458 875-1153): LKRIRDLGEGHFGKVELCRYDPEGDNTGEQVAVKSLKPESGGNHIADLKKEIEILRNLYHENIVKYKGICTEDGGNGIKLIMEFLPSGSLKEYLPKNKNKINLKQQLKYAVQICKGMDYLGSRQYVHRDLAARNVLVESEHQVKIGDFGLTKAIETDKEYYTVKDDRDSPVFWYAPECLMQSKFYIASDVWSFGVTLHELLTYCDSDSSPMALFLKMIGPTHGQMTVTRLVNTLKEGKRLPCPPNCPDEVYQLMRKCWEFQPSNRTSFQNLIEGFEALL
JAK2, sequence (O60674 849-1124): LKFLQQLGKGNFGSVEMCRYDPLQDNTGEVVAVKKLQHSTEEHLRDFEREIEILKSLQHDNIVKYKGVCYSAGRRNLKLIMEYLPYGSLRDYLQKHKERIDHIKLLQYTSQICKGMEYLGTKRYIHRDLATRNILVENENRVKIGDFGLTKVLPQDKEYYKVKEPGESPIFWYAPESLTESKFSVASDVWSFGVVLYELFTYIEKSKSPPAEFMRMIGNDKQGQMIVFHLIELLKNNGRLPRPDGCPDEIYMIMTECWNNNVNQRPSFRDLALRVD

Take `Cn1ccc(-c2ccc(Nc3nn(C4(CC#N)CCN(C(=O)OC(C)(C)C)CC4)cc3C(N)=O)cc2)n1` [Example 9-13, tert-butyl 4-(4-carbamoyl-3-{[4-(1-methyl-1H-pyrazol-3-yl)phenyl]amino}-1H-pyrazol-1-yl)-4-(cyanomethyl)piperidine-1-carboxylate]: the values for the IC50 at JAK1 and against JAK2 were 3 nM and 138 nM, respectively.

Consider `Cc1cccc(Cl)c1NC(=O)N1CC(CC#N)(n2cc(C(N)=O)c(Nc3ccccc3)n2)C1` [Example 38-24, 1-{1-[(2-chloro-6-methylphenyl)carbamoyl]-3-(cyanomethyl)azetidin-3-yl}-3-(phenylamino)-1H-pyrazole-4-carboxamide], for which the IC50 on JAK1 was 5 nM; against JAK2 it was 179 nM.

For the compound `Cn1ccc(CN2CCC(CC#N)(n3cc(C(N)=O)c(Nc4ccnc(F)c4)n3)CC2)n1` [Example 22-30, 1-{4-(cyanomethyl)-1-[(1-methyl-1H-pyrazol-3-yl)methyl]piperidin-4-yl}-3-[(2-fluoropyridin-4-yl)amino]-1H-pyrazole-4-carboxamide], the IC50 on JAK1 was 86 nM; at JAK2, more than 1500 nM.

As for `CC(CF)(CF)C(=O)N1CCC(CC#N)(n2cc(C(N)=O)c(Nc3ccnc(F)c3)n2)CC1` [Example 34-41, 1-{4-(cyanomethyl)-1-[3-fluoro-2-(fluoromethyl)-2-methylpropanoyl]piperidin-4-yl}-3-[(2-fluoropyridin-4-yl)amino]-1H-pyrazole-4-carboxamide], the values for the IC50 at JAK1 and against JAK2 were 3 nM and 48 nM, respectively.

`N#CCC1(n2cc(C(N)=O)c(Nc3ccccc3)n2)CCN(C(=O)c2ccc3ccccc3n2)CC1` [Example 34-32, 1-[4-(cyanomethyl)-1-(quinolin-2-ylcarbonyl)piperidin-4-yl]-3-(phenylamino)-1H-pyrazole-4-carboxamide]: the IC50 turned out to be 6 nM on JAK1 and 166 nM at JAK2.

In the case of `N#CCC1(n2cc(C(N)=O)c(Nc3ccccc3)n2)CCN(C(=O)OCc2ccccc2)CC1` [Example 27-4, benzyl 4-[4-carbamoyl-3-(phenylamino)-1H-pyrazol-1-yl]-4-(cyanomethyl)piperidine-1-carboxylate], the IC50 is 3 nM at JAK1 and 85 nM at JAK2.

For `CC(C)S(=O)(=O)N1CCC(CC#N)(n2cc(C(N)=O)c(Nc3ccccc3)n2)CC1` [Example 37-1, 1-[4-(Cyanomethyl)-1-(isopropylsulfonyl)piperidin-4-yl]-3-(phenylamino)-1H-pyrazole-4-carboxamide], the IC50 worked out at 2 nM at JAK1 and 13 nM against JAK2.

As for `N#CCC1(n2cc(C(N)=O)c(Nc3cncc(F)c3)n2)CCN(C(=O)OCC(F)(F)F)CC1` [Example 10-8, 2,2,2-trifluoroethyl 4-(4-carbamoyl-3-(5-fluoropyridin-3-ylamino)-1H-pyrazol-1-yl)-4-(cyanomethyl)piperidine-1-carboxylate], the concentration for half-maximal inhibition (IC50) on JAK1 was 0.7 nM; on JAK2 it was 21 nM.

For `CC(C)(C)OC(=O)N1CCC(CC#N)(n2cc(C(N)=O)c(Nc3cccc(Cn4nnc5ccccc54)c3)n2)CC1` [Example 2-4, tert-butyl 4-(3-{[3-(1H-benzotriazol-1-ylmethyl)phenyl]amino}-4-carbamoyl-1H-pyrazol-1-yl)-4-(cyanomethyl)piperidine-1-carboxylate], the IC50 at JAK1 worked out at 0.5 nM; against JAK2 it was 18 nM.

Consider `Cn1cnc(S(=O)(=O)N2CCC(CC#N)(n3cc(C(N)=O)c(Nc4ccccc4)n3)CC2)c1` [Example 37-7, 1-{4-(cyanomethyl)-1-[(1-methyl-1H-imidazol-4-yl)sulfonyl]piperidin-4-yl}-3-(phenylamino)-1H-pyrazole-4-carboxamide], for which the concentration for half-maximal inhibition (IC50) came to 2 nM on JAK1 and 9 nM at JAK2.

For `N#CCC1(n2cc(C(N)=O)c(Nc3ccccc3)n2)CN(C(=O)NC2CCCCC2)C1` [Example 38-2, 1-[3-(cyanomethyl)-1-(cyclohexylcarbamoyl)azetidin-3-yl]-3-(phenylamino)-1H-pyrazole-4-carboxamide], the IC50 came out at 20 nM at JAK1 and 628 nM against JAK2.

Turning to `Cc1ccc(Cl)cc1NC(=O)N1CC(CC#N)(n2cc(C(N)=O)c(Nc3ccccc3)n2)C1` [Example 38-17, 1-{1-[(5-chloro-2-methylphenyl)carbamoyl]-3-(cyanomethyl)azetidin-3-yl}-3-(phenylamino)-1H-pyrazole-4-carboxamide], the results for the IC50 on JAK1 and against JAK2 were 11 nM and 149 nM, respectively.

On to `COC(=O)N1CCC(CC#N)(n2cc(C(N)=O)c(Nc3ccc(S(C)(=O)=O)cc3)n2)CC1` [Example 27-3, methyl 4-(4-carbamoyl-3-{[4-(methylsulfonyl)phenyl]amino}-1H-pyrazol-1-yl)-4-(cyanomethyl)piperidine-1-carboxylate], for which the IC50 at JAK1 is 1 nM; against JAK2, 16 nM.

For `CS(=O)(=O)c1ccc(Nc2nn([C@]3(CC#N)C[C@@H](C#N)C3)cc2C(N)=O)cc1` [Example 2-22, 1-((1r,3r)-3-cyano-1-(cyanomethyl)cyclobutyl)-3-((4-(methylsulfonyl)phenyl)amino)-1H-pyrazole-4-carboxamide], the IC50 at JAK1 stood at 13 nM; against JAK2 it was 127 nM.

Take `COC(C)COC(=O)N1CCC(CC#N)(n2cc(C(N)=O)c(Nc3ccc(F)cc3)n2)CC1` (stereo not drawn) [Example 30-24, 2-methoxypropyl 4-{4-carbamoyl-3-[(4-fluorophenyl)amino]-1H-pyrazol-1-yl}-4-(cyanomethyl)piperidine-1-carboxylate]: the IC50 at JAK1 came out at 4 nM; at JAK2, 96 nM.

With `N#CCC1(n2cc(C(N)=O)c(Nc3ccc(F)cc3)n2)CCC(N2CCc3ccccc32)CC1` (stereo not drawn) [Example 40-21, Cis or trans 1-[1-(cyanomethyl)-4-(2,3-dihydro-1H-indol-1-yl)cyclohexyl]-3-[(4-fluorophenyl)amino]-1H-pyrazole-4-carboxamide], the IC50 is 171 nM on JAK1 and more than 1500 nM against JAK2.

In the case of `N#CCC1(n2cc(C(N)=O)c(Nc3cccc(-c4cc[nH]n4)c3)n2)CCN(C(=O)OCC(F)(F)F)CC1` [Example 10-4, 2,2,2-trifluoroethyl 4-(3-(3-(1H-pyrazol-3-yl)phenylamino)-4-carbamoyl-1H-pyrazol-1-yl)-4-(cyanomethyl)piperidine-1-carboxylate], the IC50 on JAK1 turned out to be 0.4 nM; against JAK2, 29 nM.

`CC(C)(C)OC(=O)N1CCC(CC#N)(n2cc(C(N)=O)c(Nc3ccnc(CO)c3)n2)CC1` [Example 9-18, tert-butyl 4-(4-carbamoyl-3-{[2-(hydroxymethyl)pyridin-4-yl]amino}-1H-pyrazol-1-yl)-4-(cyanomethyl)piperidine-1-carboxylate]: the IC50 at JAK1 came to 6 nM; on JAK2, 101 nM.

`N#CCC1(n2cc(C(N)=O)c(Nc3ccccc3)n2)CCN(C(=O)c2ccsc2)CC1` [Example 34-16, 1-[4-(cyanomethyl)-1-(thiophen-3-ylcarbonyl)piperidin-4-yl]-3-(phenylamino)-1H-pyrazole-4-carboxamide]: the IC50 stood at 2 nM at JAK1 and 35 nM on JAK2.

In the case of `N#CCC1(n2cc(C(N)=O)c(Nc3ccccc3)n2)CN(C(=O)OCc2ccccc2)C1` [Example 30-53, benzyl 3-[4-carbamoyl-3-(phenylamino)1H-pyrazol-1-yl]-3-(cyanomethyl)azetidine-1-carboxylate], the IC50 was 11 nM at JAK1 and 262 nM at JAK2.

On to `CC(=O)c1ccc(Nc2nn(C3(CC#N)CCN(C(=O)OC(C)(C)C)CC3)cc2C(N)=O)cc1` [Example 9-10, tert-butyl 4-(3-(4-acetylphenylamino)-4-carbamoyl-1H-pyrazol-1-yl)-4-(cyanomethyl)piperidine-1-carboxylate], for which the IC50 was 0.2 nM at JAK1 and 3 nM against JAK2.

With `N#CCC1(n2cc(C(N)=O)c(Nc3ccccc3)n2)CCN(C(=O)c2cccc3ccccc23)CC1` [Example 34-25, 1-[4-(cyanomethyl)-1-(naphthalene-1-ylcarbonyl)piperidin-4-yl]-3-(phenylamino)-1H-pyrazole-4-carboxamide], the IC50 at JAK1 stood at 28 nM; at JAK2 it was 350 nM.

As for `N#CCC1(n2cc(C(N)=O)c(Nc3ccccc3)n2)CCN(Cc2cccc3ccccc23)CC1` [Example 21-8, 1-[4-(cyanomethyl)-1-(naphthalene-1-ylmethyl)piperidin-4-yl]-3-(phenylamino)-1H-pyrazole-4-carboxamide], the figures for the half-inhibitory concentration (IC50) on JAK1 and against JAK2 were 89 nM and 1300 nM, respectively.

On to `N#CCC1(n2cc(C(N)=O)c(Nc3ccccc3)n2)CCN(S(=O)(=O)c2cccc(Cl)c2)CC1` [Example 37-11, 1-{1-[(3-chlorophenyl)sulfonyl]-4-(cyanomethyl)piperidin-4-yl}-3-(phenylamino)-1H-pyrazole-4-carboxamide], for which the IC50 at JAK1 is 0.6 nM; at JAK2, 2 nM.

With `CC(C)(C)OC(=O)N1CC(CC#N)(n2cc(C(N)=O)c(Nc3ccc(C(=O)N4CCS(=O)(=O)CC4)cc3)n2)C1` [Example 2-8, tert-butyl 3-[4-carbamoyl-3-({4-[(1,1-dioxidothiomorpholin-4-yl)carbonyl]phenyl}amino)-1H-pyrazol-1-yl]-3-(cyanomethyl)azetidine-1-carboxylate], the figures for the IC50 on JAK1 and at JAK2 were 2 nM and 5 nM, respectively.

`N#CCC1(n2cc(C(N)=O)c(Nc3ccnc(F)c3)n2)CCC(Nc2cccc(Cl)c2)CC1` (stereo not drawn) [Example 40-29, Cis or trans 1-{4-[(3-chlorophenyl)amino]-1-(cyanomethyl)cyclohexyl}-3-[(2-fluoropyridin-4-yl)amino]-1H-pyrazole-4-carboxamide]: the figures for the IC50 on JAK1 and at JAK2 were 0.07 nM and 4 nM, respectively.

On to `N#CCC1(n2cc(C(N)=O)c(Nc3ccccc3)n2)CCN(S(=O)(=O)c2ccccc2)CC1` [Example 37-6, 1-[4-(cyanomethyl)-1-(phenylsulfonyl)piperidin-4-yl]-3-(phenylamino)-1H-pyrazole-4-carboxamide], for which the IC50 was 0.3 nM on JAK1 and 1 nM against JAK2.
